# Laboratory results from patent US5683987A, “Therapeutic oligonucleotides targeting the human MDR1 and MRP genes” (The Board of Regents of the University of Nebraska, priority 1995, dated 1997).
# Where “and” joins values, the source holds several entries; their conditions need not be identical. Identical values can stand only once. Like-named read-outs stand apart in the source and are kept apart here.
# What was measured:
# [1] = system: 8226/Dox human myeloma cells; assay: Sensitivity of 8226/Dox cells to Vincristine with increasing time after Vincristine exposure; type: cell-based; details: for Relative Sensitization (fold increase) Day 5: Day 5 after Vincristine exposure; for Relative Sensitization (fold increase) Day 7: Day 7 after Vincristine exposure; for Relative Sensitization (fold increase) Day 9: Day 9 after Vincristine exposure
# Method: As shown in this example, several oligos which target the MDR1 gene are able to sensitize multidrug-resistant cell lines to the cytotoxic effects of the chemotherapeutic agent Vincristine. […] The cells were then washed and seeded into 96-well plates (quadruplicate replicates) for pulsing with tritiated thymidine 3 days later. Cells were harvested the next day (=4th day after drug treatment). Tritiated thymidine uptake was analyzed by liquid scintillation.
# As shown in this example, it was determined that there was an increase in sensitivity of multidrug-resistant 8226/Dox human myeloma cells to Vincristine with increasing time of incubation following initial exposure to Vincristine. The experimental conditions were identical to those utilized in obtaining the data shown in Table 7, except that the present experiment had two additional time points.
# [2] = system: 8226/Dox human myeloma cells; assay: Sensitization of 8226/Dox cells to Vincristine by MDR-oligos in 5% oxygen; type: cell-based; details: 5% oxygen; for IC50: Vincristine IC50 after 4 days with 10 μM oligo, read-out: IC50 dose; for Relative sensitization (fold increase): to Vincristine, 10 μM oligo
# Method: (§1) As shown in this example, several oligos which target the MDR1 gene are able to sensitize multidrug-resistant cell lines to the cytotoxic effects of the chemotherapeutic agent Vincristine. Tumor cells were treated in vitro with 10 μM of the indicated oligo for 4 days at 37° C., then counted, dispensed into individual tubes, and pulsed with Vincristine at various doses (serial 5-fold dilutions) for 3 hrs. The cells were then washed and seeded into 96-well plates (quadruplicate replicates) for pulsing with tritiated thymidine 3 days later. Cells were harvested the next day (=4th day after drug treatment). Tritiated thymidine uptake was analyzed by liquid scintillation.
# [3] = system: CEM/VLB10 human leukemia cells; assay: Sensitization of CEM/VLB10 cells to Vincristine by MDR-oligos in 5% oxygen; type: cell-based; details: 5% oxygen; for IC50: Vincristine IC50 after 4 days with 10 μM oligo, read-out: IC50 dose; for Relative sensitization (fold increase): to Vincristine, 10 μM oligo
# Method: as §1
# [4] = system: A427 human non-small-cell lung adenocarcinoma cell line; assay: Sensitization of A427 lung cancer cells to etoposide by MRP-oligos; type: cell-based
# Method: The human non-small-cell lung adenocarcinoma cell line A427 was treated with oligos at various concentrations for 4 days in vitro. The cells then were pulsed with various concentrations of etoposide (range 1.6×10^-4 to 1×10^-6 M) for 3 hrs. Next, cells were trypsinized and seeded by volume into 96-well plates with 12 replicates per treatment condition. Three days later, tritiated thymidine was added and the cells harvested the next day.
# 8226/Dox cells [5] = assay: Sensitization of 8226/Dox cells to VCR by MDR-aptameric oligonucleotides; type: cell-based, human; details: compared to media control
# 8226/Dox cells [6] = assay: Sensitization of 8226/Dox cells to Vincristine by an MRP-oligo and MDR-ODNs; type: cell-based, human; details: for IC50: Vincristine IC50 after oligo treatment, conditions as Example 2, read-out: IC50 dose; for Relative sensitization (fold increase): to Vincristine, vs medium only
# Method: as §1
# In this example, experimental conditions were identical to those utilized in obtaining the data in Example 2.
# [7] = system: 8226/Dox4 human myeloma cells; assay: Vincristine IC50 summary after MDR-oligo treatment; type: cell-based; details: oligo 0.2 μM; compared to media control
# Method: (§2) In vitro testing of MDR-Oligonucleotides was done on the multidrug-resistant (MDR+) RPMI-8226/Dox4 human multiple myeloma cell line (gift of Dr. William Dalton, Univ. Arizona Cancer Ctr., Tucson). Cells were incubated in vitro for 4 days at 37° C. with MDR-oligos at 0.2 μM final concentration; pulsed 18 hr with serial 5-fold dilutions of chemotherapeutic drug (vincristine) from 1×10^-4 M to 2×10^-10 M. Cells were then washed, and incubated for an additional 4 days. Tritiated thymidine (^3 H-TdR) was added for last 18 hr to measure status of cellular proliferation. Controls included MDR^+ 8226 cells similarly treated with vincristine but pretreated either with (a) control ODNs, or (b) culture medium only.
# 8226/Dox4 cells = assay: Parsimonious regression model estimates of count and Vincristine IC50; type: cell-based, human; details: for Estimated Mean Count (cpm): 3H-TdR count at VCR Dose = 0, oligo alone, media only 159,500; for Fold Increase in drug sensitivity: compared to corresponding oligo control (no drug)
# Method: as §2
# The following mathematical/statistical model was used to analyze the effects of oligos and various drug treatments on targeted tumor cells in these studies. The model is based on experiments which generally involve treatment of tumor cells with one of several ODNs or media only, and with several dose levels of an anti-cancer agent (such as, for example, vincristine (VCR)) or media only. Analysis goals were to model the relationship of cell kill to the dose of VCR (for example), and to compare the effects of the various ODNs.
# This final model contained 10 regressor variables.
# Various estimates of parameters from the parsimonious model are shown in TABLE 13, which contains the model estimate of the count for each ODN with media only; differences here (when compared to "media only" [no ODN]) reflect the cell kill associated with the ODN alone. TABLE 13 also contains an estimate of IC50 values, the dose of vincristine (VCR) which is estimated to produce an expected count which is exactly half that expected with "media only" [no VCR]. While formal statistical comparisons of the IC50 values of the various ODNs is not possible, an ordering of the ODNs by estimated IC50 values is possible.
molecule,measurement,setting,value
5(1)mdr: SEQ ID NO 10: CCCTACCTCGCGCTCCTTGGAACGGC (CCCTACCTCGCGCTCCTTGGAACGGC; chemistry not given here),Relative Sensitization (fold increase) Day 5,[1]; oligo 2 μM,3.4 fold increase
same,Relative Sensitization (fold increase) Day 7,[1]; oligo 2 μM,26.9 fold increase
same,Relative Sensitization (fold increase) Day 9,[1]; oligo 2 μM,724 fold increase
same,Relative Sensitization (fold increase) Day 5,[1]; oligo 10 μM,2.1 fold increase
same,Relative Sensitization (fold increase) Day 7,[1]; oligo 10 μM,20.5 fold increase
same,Relative Sensitization (fold increase) Day 9,[1]; oligo 10 μM,423 fold increase
same,IC50,[2],180 nM
same,Relative sensitization (fold increase),[2],2.5 fold increase
same,IC50,[3],90 nM
same,Relative sensitization (fold increase),[3],111 fold increase
5(2)MRP: SEQ ID NO 43: CGGTGGCGCGGGCGGCGGCGGGCACC (CGGTGGCGCGGGCGGCGGCGGGCACC; chemistry not given here),Etoposide (VP-16) Relative Sensitization (fold increase),[4]; oligo 10 μM,6 fold increase
5(3)MRP: SEQ ID NO 42: CGGCGGCGGCGGCGCAGGGAGCCGGG (CGGCGGCGGCGGCGCAGGGAGCCGGG; chemistry not given here),Etoposide (VP-16) Relative Sensitization (fold increase),[4]; oligo 10 μM,5 fold increase
"COc1cc([C@@H]2c3cc4c(cc3[C@@H](O[C@@H]3O[C@@H]5CO[C@@H](C)O[C@H]5[C@H](O)[C@H]3O)[C@H]3COC(=O)[C@H]23)OCO4)cc(OC)c1O [Etoposide (VP-16), etoposide, reference compound]",IC50,"[4]; Homo sapiens, A-427, read-out: Etoposide (VP-16) IC50, Media Control (no oligo)",36000 nM
same,IC50,"[4]; read-out: Etoposide (VP-16) IC50, Media Control (no oligo)",50000 nM and 60000 nM
"CO[C@@H]1[C@@H](OC(N)=O)[C@@H](O)[C@H](Oc2ccc3c(O)c(NC(=O)c4ccc(O)c(CC=C(C)C)c4)c(=O)oc3c2C)OC1(C)C [Novobiocin, novobiocin, reference compound]",Etoposide (VP-16) Relative Sensitization (fold increase),[4]; novobiocin used at the same time as VP-16,5.0 fold increase
same,Etoposide (VP-16) Relative Sensitization (fold increase),"[4]; novobiocin used at the same time as VP-16, listed as novobiocin",about 5 fold increase
"MDR-APT-1: MDR-aptameric oligonucleotide, SEQ ID NO 88: CCCCTGGCGTTACCTCCTCGTTTCT (CCCCTGGCGTTACCTCCTCGTTTCT; chemistry not given here)",Fold Increase in Drug Sensitization,8226/Dox cells [5],"40,000 fold"
OL(2)MRP: SEQ ID NO 49: CGGTGATGCT GTTCGTGCCC (CGGTGATGCTGTTCGTGCCC; chemistry not given here),Etoposide (VP-16) Relative Sensitization (fold increase),[4]; oligo 10 μM,2.4 fold increase
OL(2)mdr: SEQ ID NO 35: GCAACCAGCA CCCCAGCACC (GCAACCAGCACCCCAGCACC; chemistry not given here),IC50,[3],160 nM
same,Relative sensitization (fold increase),[3],62 fold increase
same,IC50,8226/Dox cells [6],300 nM
same,Relative sensitization (fold increase),8226/Dox cells [6],3.7 fold increase
"OL(3)MRP: SEQ ID NO 62, position 2848: CCCTGGACCG CTGACGCCCG (CCCTGGACCGCTGACGCCCG; chemistry not given here)",Etoposide (VP-16) Relative Sensitization (fold increase),[4]; oligo 10 μM,5 fold increase
OL(3)mdr: SEQ ID NO 37: TGCCCACCAG AGCCAGCGTC (TGCCCACCAGAGCCAGCGTC; chemistry not given here),IC50,[3],200 nM
same,Relative sensitization (fold increase),[3],50 fold increase
same,IC50,8226/Dox cells [6],100 nM
same,Relative sensitization (fold increase),8226/Dox cells [6],11 fold increase
OL(4)MRP: SEQ ID NO 76: CGATGCCGAC CTTTTCTCC (CGATGCCGACCTTTTCTCC; chemistry not given here),Etoposide (VP-16) Relative Sensitization (fold increase),[4]; oligo 1 μM,3 fold increase
OL(5)MRP: SEQ ID NO 48: CTGCGGCCCG GAAAACATCA (CTGCGGCCCGGAAAACATCA; chemistry not given here),Etoposide (VP-16) Relative Sensitization (fold increase),[4]; oligo 10 μM,6 fold increase
OL(5)mdr: SEQ ID NO 21: TCTGGACTTT GCCCGCCGCC (TCTGGACTTTGCCCGCCGCC; chemistry not given here),IC50,[3],150 nM
same,Relative sensitization (fold increase),[3],67 fold increase
OL(6)MRP: SEQ ID NO 60: GGGCCAGGCT CACGCGCTGC (GGGCCAGGCTCACGCGCTGC; chemistry not given here),Etoposide (VP-16) Relative Sensitization (fold increase),[4]; oligo 10 μM,8 fold increase
OL(6A)mdr: SEQ ID NO 2: GTGCTCAGCC CACGCCCCGG (GTGCTCAGCCCACGCCCCGG; chemistry not given here),IC50,8226/Dox cells [6],88 nM
same,Relative sensitization (fold increase),8226/Dox cells [6],12.5 fold increase
OL(10)mdr: SEQ ID NO 11: GCTCCCAGCT TTGCGTGCCC (GCTCCCAGCTTTGCGTGCCC; chemistry not given here),Fold-Increase in sensitivity to drug treatment,[7],40 fold
OL(12)mdr: SEQ ID NO 12: GCGCGCTCCG GGCAACATGG (GCGCGCTCCGGGCAACATGG; chemistry not given here),Fold-Increase in sensitivity to drug treatment,[7],200 fold
same,Estimated Mean Count (cpm),8226/Dox4 cells,"159,500 cpm"
same,Fold Increase in drug sensitivity,8226/Dox4 cells,233 fold
OL(12A)mdr: SEQ ID NO 13: CGCGCTCCGGGCAACATGGTCC (CGCGCTCCGGGCAACATGGTCC; chemistry not given here),Fold-Increase in sensitivity to drug treatment,[7],375 fold
same,Estimated Mean Count (cpm),8226/Dox4 cells,"159,500 cpm"
same,Fold Increase in drug sensitivity,8226/Dox4 cells,414 fold
OL(12B)mdr: SEQ ID NO 14: CGCGCTCCGG GCAACATG (CGCGCTCCGGGCAACATG; chemistry not given here),Fold-Increase in sensitivity to drug treatment,[7],40 fold
same,Estimated Mean Count (cpm),8226/Dox4 cells,"159,500 cpm"
same,Fold Increase in drug sensitivity,8226/Dox4 cells,17.3 fold
OL(14)MRP: SEQ ID NO 44: GCGGGTCGGA GCCATCGGCG (GCGGGTCGGAGCCATCGGCG; chemistry not given here),Etoposide (VP-16) Relative Sensitization (fold increase),[4]; oligo 10 μM,3 fold increase
PA(1)mdr: SEQ ID NO 40: GCGGGAGGTGAGTCACTGTCTCC (GCGGGAGGTGAGTCACTGTCTCC; chemistry not given here),Relative Sensitization (fold increase) Day 5,[1]; oligo 2 μM,2.3 fold increase
same,Relative Sensitization (fold increase) Day 7,[1]; oligo 2 μM,27 fold increase
same,Relative Sensitization (fold increase) Day 9,[1]; oligo 2 μM,1309 fold increase
same,Relative Sensitization (fold increase) Day 5,[1]; oligo 10 μM,6.3 fold increase
same,Relative Sensitization (fold increase) Day 7,[1]; oligo 10 μM,28 fold increase
same,Relative Sensitization (fold increase) Day 9,[1]; oligo 10 μM,550 fold increase
same,IC50,[2],28 nM
same,Relative sensitization (fold increase),[2],16 fold increase
same,IC50,[3],190 nM
same,Relative sensitization (fold increase),[3],53 fold increase
SJ(34)mdr: SEQ ID NO 5: TCGAATGAGC TCAGGCTTCC (TCGAATGAGCTCAGGCTTCC; chemistry not given here),Fold-Increase in sensitivity to drug treatment,[7],293 fold
SJ(34A)mdr: SEQ ID NO 6: TCGAATGAGC TCAGGCTT (TCGAATGAGCTCAGGCTT; chemistry not given here),Fold-Increase in sensitivity to drug treatment,[7],> 7500 fold
same,Estimated Mean Count (cpm),8226/Dox4 cells,"100,300 cpm"
same,Fold Increase in drug sensitivity,8226/Dox4 cells,188 fold
SJ(34C)mdr: SEQ ID NO 8: AGCTCAGGCT TCCTGTGGCA (AGCTCAGGCTTCCTGTGGCA; chemistry not given here),Fold-Increase in sensitivity to drug treatment,[7],2182 fold
SJ(36)mdr: SEQ ID NO 39: CCAGGGCTTCTTGGACAACCTA (CCAGGGCTTCTTGGACAACCTA; chemistry not given here),IC50,[3],160 nM
same,Relative sensitization (fold increase),[3],62 fold increase
